Assay results reported in US20030195240A1, “Pharmaceutical compositions comprising proton pump inhibitors and gastrin/cholecystokinin receptor ligands” (priority 2000, published 2003).

Test system: ECL cells
Assay: labelling index of ECL cells (HDC+PCNA double labelling) in oxyntic mucosa after 14 days once-daily treatment
Assay type: in vivo, male SPF Wistar rats
Details: rats, 25 mg/kg p.o. once daily for 14 days; compared with control group
Description: This was measured according to the following experimental protocol. 40 male SPF Wistar rats (200 g) were divided into 4 treatment groups and 2 strata. The treatment of the 20 rats in the second stratum started 2 weeks after the treatment of the first stratum. The design of the study was completely randomised double blind with individual blinding; all rats were placed in a separate cage. Animals had continuous access to water and food. Animals were treated once daily during 14 days: [table] After removal of the fundus, the stomach were rinsed with phosphate buffered saline prior to fixation with 4% formalin in Millonig buffer. After 4 hours immersion in fixative solutions at room temperature, tissue was rinsed in phosphate buffered saline (PBS), dehydrated and embedded in paraffin using the Leitz paraffin embedding station (Leitz TP 1050; Germany) dehydration module and paraffin embedding module (Leitz EG 1160; Germany). Cross sections (3 μm thick) of the oxyntic part of the stomach were made at 3 levels, each separated by a distance of 400 μm. The following indirect immunofluorescence labeling method was used: removal of paraffin and rehydratation of the sections followed by a blocking step primary antibodies: polyclonal guinea pig anti-histidine decarboxylase, 1/2000 (from Euro-Diagnostica) and monoclonal mouse anti PCNA 1/2500 (Clone PC10 from Sigma). […]

COCCCOc1ccnc(C[S+]([O-])c2nc3ccccc3[nH]2)c1C (stereo not shown) [rebeprazole, 2-[[4-(3-methoxypropoxy)-3-methylpyridin-2-yl]methylsulfinyl]-1H-benzimidazole]
labelling index of ECL cells, Mann-Whitney test P, treated group versus control group: 0.04
